For the experiment, the target named is T1, recombinant HIV-1 protease (Human immunodeficiency virus type 1 group M subtype B, UniProt P04585).
T1 construct: measured using a recombinant HIV-1 protease
The experiment can be described thus: HIV protease inhibition activity (enzyme activity inhibition rate). The following applies: 50 nM final concentration of test compound, 60 min at 37° C.; for inhibition at 0.05 µM: read-out: Enzyme activity inhibition rate (%) (addition concentration of 50 nM). Type of experiment: biochemical. Here is the method: The protease activity was measured using a recombinant HIV-1 protease (see Biochemistry, 250 (9)-264 (1990)) and a synthesized peptide substrate. The inhibition rate was calculated by determining a peptide fragment generated by cleavage between Tyr-Pro of the synthesized substrate after the reaction of 60 min at 37° C. using a reversed phase HPLC in the presence of the test compounds in various concentrations (see, for example, Japanese Patent Application Laid-open No. 170722/1993).
Examples of the evaluation results of the HIV protease inhibition activity of the tripeptide compound of the present invention by the above-described method is shown in Table 1. […] The concentration of the test compounds in Table 1 represents the final concentration in the reaction mixture.

Data on 21 molecules can be found in patent publication US6291432A (Japan Energy Corporation, priority 1996, dated 2001).

As for `Cc1ccccc1CNC(=O)[C@@H]1CSCN1C(=O)[C@@H](O)[C@H](Cc1ccccc1)NC(=O)[C@H](CC(N)=O)NC(=O)OCc1ccccc1` [Example 2, (R)-N-(2-methylbenzyl)-3-{(2S,3S)-3-[N-(benzyloxycarbonyl)-L-asparaginyl]amino-2-hydroxy-4-phenylbutanoyl}-1,3-thiazolidine-4-carboxamide], the inhibition at 0.05 µM is 71.7%.
Still for that read-out and setting: the figure for `Cc1ccccc1CNC(=O)[C@H]1N(C(=O)[C@@H](O)[C@H](Cc2ccccc2)NC(=O)[C@@H](NC(=O)OCc2ccccc2)C(C)C)CSC1(C)C` [Example 4, (R)-N-(2-methylbenzyl)-3-{(2S,3S)-3-[N-(benzyloxycarbonyl)-L-valyl]amino-2-hydroxy-4-phenylbutanoyl}-5,5-dimethyl-1,3-thiazolidine-4-carboxamide] is 95.3%; for `CC1(C)SCN(C(=O)[C@@H](O)[C@H](Cc2ccccc2)NC(=O)[C@H](CC(N)=O)NC(=O)OCc2ccccc2)[C@@H]1C(=O)NCc1ccccc1Cl` [Example 5, (R)-N-(2-chlorobenzyl)-3-{(2S,3S)-3-[N-(benzyloxycarbonyl)-L-asparaginyl]amino-2-hydroxy-4-phenylbutanoyl}-5,5-dimethyl-1,3-thiazolidine-4-carboxamide] it is 98.4%; for `Cc1ccccc1CNC(=O)[C@H]1N(C(=O)[C@@H](O)[C@H](Cc2ccccc2)NC(=O)[C@@H](NC(=O)COc2cccc3cnccc23)C(C)C)CSC1(C)C` [Example 8, (R)-N-(2-methylbenzyl)-3-{(2S,3S)-3-[N-(5-isoquinolinyloxyacetyl)-L-valyl]amino-2-hydroxy-4-phenylbutanoyl}-5,5-dimethyl-1,3-thiazolidine-4-carboxamide] it is 97.7%.
Take `Cc1ccccc1CNC(=O)[C@@H]1[C@@H](C)OCN1C(=O)[C@@H](O)[C@H](Cc1ccccc1)NC(=O)[C@H](CC(N)=O)NC(=O)OCc1ccccc1` [Example 9, (4S,5R)-N-(2-methylbenzyl)-3-{(2S,3S)-3-[N-(benzyloxycarbonyl)-L-asparaginyl]amino-2-hydroxy-4-phenylbutanoyl}-5-methyl-1,3-oxazolidine-4-carboxamide]: the inhibition at 0.05 µM came to 61.9%.
With `Cc1ccccc1CNC(=O)[C@H]1N(C(=O)[C@@H](O)[C@H](Cc2ccccc2)NC(=O)[C@@H](NC(=O)c2cc3ccccc3o2)C(C)C)CSC1(C)C` [Example 11, (R)-N-(2-methylbenzyl)-3-{(2S,3S)-3-[N-(2-benzofurancarbonyl)-L-valyl]amino-2-hydroxy-4-phenylbutanoyl}-5,5-dimethyl-1,3-thiazolidine-4-carboxamide], the inhibition at 0.05 µM amounted to 97.1%.
Take `Cc1ccccc1CNC(=O)[C@H]1N(C(=O)[C@@H](O)[C@H](Cc2ccccc2)NC(=O)[C@@H](NC(=O)c2cc(=O)c3ccccc3o2)C(C)C)CSC1(C)C` [Example 12, (R)-N-(2-methylbenzyl)-3-{(2S,3S)-3-[N-(2-chromonecarbonyl)-L-valyl]amino-2-hydroxy-4-phenylbutanoyl}-5,5-dimethyl-1,3-thiazolidine-4-carboxamide]: the “Enzyme activity inhibition rate (%) (addition concentration of 50 nM)” value amounted to 97.4%.
Take `Cc1ccccc1CNC(=O)[C@H]1N(C(=O)[C@@H](O)[C@H](Cc2ccccc2)NC(=O)[C@@H](NC(=O)c2ccc3ccccc3n2)C(C)C)CSC1(C)C` [Example 13, (R)-N-(2-methylbenzyl)-3-{(2S,3S)-3-[N-(2-quinolinecarbonyl)-L-valyl]amino-2-hydroxy-4-phenylbutanoyl}-5,5-dimethyl-1,3-thiazolidine-4-carboxamide]: the inhibition at 0.05 µM worked out at 96.6%.
Same read-out and setting: then `Cc1ccccc1CNC(=O)[C@H]1N(C(=O)[C@@H](O)[C@H](Cc2ccccc2)NC(=O)[C@@H](NC(=O)c2nc3ccccc3s2)C(C)C)CSC1(C)C` [Example 14, (R)-N-(2-methylbenzyl)-3-{(2S,3S)-3-[N-(2-benzothiazolecarbonyl)-L-valyl]amino-2-hydroxy-4-phenylbutanoyl}-5,5-dimethyl-1,3-thiazolidine-4-carboxamide], with 95.8%; and `Cc1ccccc1CNC(=O)[C@H]1N(C(=O)[C@@H](O)[C@H](Cc2ccccc2)NC(=O)[C@@H](NC(=O)c2nc3ccccc3[nH]2)C(C)C)CSC1(C)C` [Example 15, (R)-N-(2-methylbenzyl)-3-{(2S,3S)-3-[N-(2-benzimidazolecarbonyl)-L-valyl]amino-2-hydroxy-4-phenylbutanoyl}-5,5-dimethyl-1,3-thiazolidine-4-carboxamide], with 92.8%.
Still for that read-out and setting: then `Cc1ccccc1CNC(=O)[C@H]1N(C(=O)[C@@H](O)[C@H](Cc2ccccc2)NC(=O)[C@H](CC(N)=O)NC(=O)c2cnc3ccccc3n2)CSC1(C)C` [Example 18, (R)-N-(2-methylbenzyl)-3-{(2S,3S)-3-[N-(2-quinoxalinecarbonyl)-L-asparaginyl]amino-2-hydroxy-4-phenylbutanoyl}-5,5-dimethyl-1,3-thiazolidine-4-carboxamide], with 98.8%; and `Cc1ccccc1CNC(=O)[C@H]1N(C(=O)[C@@H](O)[C@H](Cc2ccccc2)NC(=O)[C@@H](NC(=O)c2cnc3ccccc3n2)C(C)C)CSC1(C)C` [Example 19, (R)-N-(2-methylbenzyl)-3-{(2S,3S)-3-[N-(2-quinoxalinecarbonyl)-L-valyl]amino-2-hydroxy-4-phenylbutanoyl}-5,5-dimethyl-1,3-thiazolidine-4-carboxamide], with 97.3%; and `COc1cccc2cc(C(=O)N[C@@H](C)C(=O)N[C@@H](Cc3ccccc3)[C@H](O)C(=O)N3CSC(C)(C)[C@H]3C(=O)NCc3ccccc3C)oc12` [Example 20, (R)-N-(2-methylbenzyl)-3-{(2S,3S)-2-hydroxy-3-[(S)-2-(7-methoxy-2-benzofurancarbonyl)aminopropanoyl]amino-4-phenylbutanoyl}-5,5-dimethyl-1,3-thiazolidine-4-carboxamide], with 97.6%.
Turning to `Cc1ccccc1CNC(=O)[C@H]1N(C(=O)[C@@H](O)[C@H](Cc2ccccc2)NC(=O)[C@@H](NC(=O)c2cnc3ccccc3c2)C(C)C)CSC1(C)C` [Example 21, (R)-N-(2-methylbenzyl)-3-{(2S,3S)-2-hydroxy-3-[(S)-2-(3-quinolinecarbonyl)amino-3-methylbutanoyl]amino-4-phenylbutanoyl}-5,5-dimethyl-1,3-thiazolidine-4-carboxamide], the inhibition at 0.05 µM was 97.7%.
In the case of `Cc1ccccc1CNC(=O)[C@H]1N(C(=O)[C@@H](O)[C@H](Cc2ccccc2)NC(=O)[C@@H](NC(=O)COc2cccc(N(C)C)c2)C(C)C)CSC1(C)C` [Example 22, (R)-N-(2-methylbenzyl)-3-{(2S,3S)-2-hydroxy-3-[(S)-2-(3-dimethylaminophenoxyacetyl)amino-3-methylbutanoyl]amino-4-phenylbutanoyl}-5,5-dimethyl-1,3-thi azolidine-4-carboxamide], the inhibition at 0.05 µM was found to be 97.6%.
On the same count and under the same terms, then `Cc1ccccc1CNC(=O)[C@H]1N(C(=O)[C@@H](O)[C@H](Cc2ccccc2)NC(=O)[C@@H](NC(=O)COc2cccc3ncccc23)C(C)C)CSC1(C)C` [Example 23, (R)-N-(2-methylbenzyl)-3-{(2S,3S)-2-hydroxy-3-[(S)-2-(5-quinolinyloxyacetyl)amino-3-methylbutanoyl]amino-4-phenylbutanoyl}-5,5-dimethyl-1,3-thiazolidine-4-carboxamide], with 98.5%.
For `CC[C@H](NC(=O)COc1ccc2ncccc2c1)C(=O)N[C@@H](Cc1ccccc1)[C@H](O)C(=O)N1CSC(C)(C)[C@H]1C(=O)NCc1ccccc1C` [Example 24, (R)-N-(2-methylbenzyl)-3-{(2S,3S)-2-hydroxy-3-[(S)-2-(6-quinolinyloxyacetyl)aminobutanoyl]amino-4-phenylbutanoyl}-5,5-dimethyl-1-thiazolidine-4-carbox amide], the “Enzyme activity inhibition rate (%) (addition concentration of 50 nM)” value is 98.1%.
On the same count and under the same terms, the figure for `CC[C@H](NC(=O)COc1cccc(N(C)C)c1)C(=O)N[C@@H](Cc1ccccc1)[C@H](O)C(=O)N1CSC(C)(C)[C@H]1C(=O)NCc1ccccc1C` [Example 25, (R)-N-(2-methylbenzyl)-3-{(2S,3S)-2-hydroxy-3-[(S)-2-(3-dimethylaminophenoxyacetyl)aminobutanoyl]amino-4-phenylbutanoyl}-5,5-dimethyl-1-thiazolidine-4-carboxamide] is 99.9%.
On to `Cc1ccccc1CNC(=O)[C@H]1N(C(=O)[C@@H](O)[C@H](Cc2ccccc2)NC(=O)[C@H](C)NC(=O)COc2cccc(N(C)C)c2)CSC1(C)C` [Example 26, (R)-N-(2-methylbenzyl)-3-{(2S,3S)-2-hydroxy-3-[(S)-2-(3-dimethylaminophenoxyacetyl)aminopropanoyl]amino-4-phenylbutanoyl}-5,5-dimethyl-1,3-thiazolidine-4-carboxamide], for which the inhibition at 0.05 µM is 99.9%.
Same read-out and setting: then `CCOC(=O)N[C@H](C(=O)N[C@@H](Cc1ccccc1)[C@H](O)C(=O)N1CSC(C)(C)[C@H]1C(=O)NCc1ccccc1C)C(C)C` [Example 29, (R)-N-(2-methylbenzyl)-3-{(2S,3S)-2-hydroxy-3-[(S)-2-(ethoxycarbonyl)amino-3-methylbutanoyl]amino-4-phenylbutanoyl}-5,5-dimethyl-1,3-thiazolidine-4-ca rboxamide], with 93%; and `COCCOC(=O)N[C@H](C(=O)N[C@@H](Cc1ccccc1)[C@H](O)C(=O)N1CSC(C)(C)[C@H]1C(=O)NCc1ccccc1C)C(C)C` [Example 30, (R)-N-(2-methylbenzyl)-3-{(2S,3S)-2-hydroxy-3-[(S)-2-(methoxyethoxycarbonyl)amino-3-methylbutanoyl]amino-4-phenylbutanoyl}-5,5-dimethyl-1,3-thiazolidine-4-carboxamide], with 94.2%.
